Measurements as given in patent EP4458820A1 (Shanghai Institute of Materia Medica, Chinese Academy of …, priority 2021, dated 2023).
Several values for one entry are separate records, joined by “and”; a condition that tells them apart may be missing. Equal entries are not always repeated. Where two headings read alike, the source gives them in different places. Each block holds one molecule with its values, some of them ahead of it.

Tests used:
[1] = system: THRβ receptor downstream genes; assay: acute pharmacodynamic evaluation: THRβ receptor downstream gene expression in liver after single administration; assay type: in vivo, C57 mice
Source text: (§1) Mice or rats were used for single oral administration, and liver and heart were taken at 3 time points after administration to detect the expression of THRβ receptor downstream genes (DIO1, ME, CYP7α1, LDLR) in the target organ-liver, and to detect the expression of THRβ receptor downstream genes (DIO1, MHCα) in the organ involved in toxicity-heart.

[2] = pharmacokinetic studies in mice; assay type: in vivo; set-up: AUC(0-t) / AUClast: concentration or dose not given beside the values; conditions: for F: bioavailability p.o. versus i.v.
Method: The preliminary pharmacokinetic studies in mice or rats of the target compounds with excellent activity obtained from the above studies were conducted to investigate the pharmacokinetic properties of the compounds under oral, intraperitoneal and intravenous administration in detail, and to calculate the parameters of in vivo exposure (AUC), peak concentration (Cmax), time to peak (Tmax), half-life period (T1/2) and bioavailability (F), which would provide a clue for further structural modification and optimization of the compounds, as well as a basis for in vivo dosage design.

thyroid axis = assay: inhibitory effect on the thyroid axis in C57 mice; assay type: in vivo; conditions: administered at high doses
MHCα = assay: preliminary safety assessment: MHCα expression in the heart of C57 mice; assay type: in vivo; conditions: after administration
Source text: as §1

[3] = system: high-fat feed -induced golden hamster model; assay: pharmacodynamic evaluation in high-fat feed-induced golden hamster model; assay type: in vivo; conditions: 10 mg/kg, after 21 days of administration
[4] = system: cardiac DIO1 and MHCα genes; assay: in vivo safety evaluation: downstream gene expression in the heart of thyroidectomized rats
Method: Normal SD rats, which underwent thyroidectomy and recovered for 1-2 weeks, were grouped by body weight and then given the test compounds or the positive compound MGL-3196. Cardiac tissues were taken after euthanasia 6 h after the administration of the drug to examine the expression of the αMHC gene in the heart after single dose of the drug.

[5] = system: CDAHFD feed-induced NAFLD model mice; assay: pharmacodynamic evaluation in CDAHFD feed-induced NAFLD model mice; assay type: in vivo; conditions: after 2 and 4 weeks of long-term administration
[6] = tissue distribution studies in mice; assay type: in vivo; conditions: for concentration at 3 h / concentration at 8 h / concentration at 24 h: mouse, po
[7] = mouse, in vivo, iv, individual animal
[8] = mouse, in vivo, po, individual animal
[9] = mouse, in vivo, po, individual animal, read-out: Cmax
[10] = mouse, in vivo, po, individual animal, read-out: Tmax
[11] = mouse, in vivo, po, mean, read-out: Cmax
[12] = mouse, in vivo, po, mean, read-out: Tmax
[13] = Table 4, oral 10 mg/kg, 3 h, individual animal, 10 mg/kg
[14] = Table 4, oral 10 mg/kg, 8 h, individual animal, 10 mg/kg
[15] = Table 4, oral 10 mg/kg, 24 h, individual animal, 10 mg/kg
[16] = Table 6, oral 10 mg/kg, 3.00 h, individual animal, 10 mg/kg
[17] = Table 6, oral 10 mg/kg, 8.00 h, individual animal, 10 mg/kg
[18] = Table 6, oral 10 mg/kg, 24.0 h, individual animal, 10 mg/kg

F [2]: 36.3%
AUClast ([2]; i.v., individual animal): 106.173 µg·h/mL and 104.125 µg·h/mL
T1/2 ([2]; i.v., individual animal): 5.10 h and 6.62 h
Vss_obs ([2]; i.v., individual animal): 0.289 L/kg and 0.253 L/kg and 0.315 L/kg
CL_obs ([2]; i.v., mean): 0.73 mL/min/kg
Vss_obs ([2]; i.v., mean): 0.286 L/kg
AUC(0-t) [2, 7]: 118 µg·h/mL
half-life [2, 7]: 6.4 h
AUC(0-t) ([2]; mouse, in vivo, iv, mean): 109 µg·h/mL
half-life ([2]; mouse, in vivo, iv, mean): 6.04 h
AUC(0-t) [2, 8]: 62.5 µg·h/mL
half-life [2, 8]: 4.31 h
Cmax [2, 9]: 9650 ng/mL
Tmax [2, 10]: 1 h
AUC(0-t) ([2]; mouse, in vivo, po, mean): 79.4 µg·h/mL
half-life ([2]; mouse, in vivo, po, mean): 4.71 h
Cmax [2, 11]: 10500 ng/mL
Tmax [2, 12]: 0.83 h
AUClast ([2]; p.o., individual animal): 100.901 µg·h/mL and 74.686 µg·h/mL
Cmax ([2]; p.o., individual animal): 12800 ng/mL and 9108 ng/mL
T1/2 ([2]; p.o., individual animal): 4.80 h and 5.02 h
Tmax ([2]; p.o., individual animal): 0.50 h
thyroid hormone levels (thyroid axis): did not affect
SMILES: Cc1cc(-c2ccc(F)cc2)nc2ccc(Oc3c(Cl)cc(-n4nc(C#N)c(=O)[nH]c4=O)cc3Cl)cc12 [Compound 3, 2-(3,5-Dichloro-4-((2-(4-fluorophenyl) -4-methylquinolin-6-yl)oxy)phenyl) -3,5-dioxo-2,3,4,5-tetrahydro-1,2,4-triazine-6-carbonitrile]
hepatic DIO1 gene expression ([1]; 3h after administration): significantly up-regulated
hepatic DIO1 gene expression ([1]; after 8 h of administration, compared with the negative control group): still effective
CL_obs ([2]; i.v., individual animal): 0.67 mL/min/kg and 0.76 mL/min/kg and 0.75 mL/min/kg
upregulation of MHCα in the heart (MHCα): did not result in upregulation

F [2]: 75.8%
AUClast ([2]; i.v., individual animal): 95.351 µg·h/mL and 95.119 µg·h/mL
Cmax ([2]; i.v., individual animal): 95119 ng/mL
T1/2 ([2]; i.v., individual animal): 4.30 h and 4.77 h
Vss_obs ([2]; i.v., individual animal): 0.22 L/kg and 0.27 L/kg and 0.267 L/kg
CL_obs ([2]; i.v., mean): 0.802 mL/min/kg
Vss_obs ([2]; i.v., mean): 0.252 L/kg
AUC(0-t) [2, 7]: 119 µg·h/mL
half-life [2, 7]: 3.93 h
Cmax ([2]; mouse, in vivo, iv, individual animal, read-out: Cmax): 95400 ng/mL
AUC(0-t) ([2]; mouse, in vivo, iv, mean): 103 µg·h/mL
half-life ([2]; mouse, in vivo, iv, mean): 4.33 h
AUC(0-t) [2, 8]: 162 µg·h/mL
half-life [2, 8]: 5.01 h
Cmax [2, 9]: 26000 ng/mL
Tmax [2, 10]: 0.5 h
AUC(0-t) ([2]; mouse, in vivo, po, mean): 156 µg·h/mL
half-life ([2]; mouse, in vivo, po, mean): 4.44 h
Cmax [2, 11]: 23100 ng/mL
Tmax [2, 12]: 0.83 h
AUClast ([2]; p.o., individual animal): 176.967 µg·h/mL and 130.466 µg·h/mL
Cmax ([2]; p.o., individual animal): 23595 ng/mL and 19689 ng/mL
T1/2 ([2]; p.o., individual animal): 4.18 h and 4.13 h
Tmax ([2]; p.o., individual animal): 1.00 h
Heart [6, 13]: 115 ng/g and 199 ng/g and 113 ng/g
Liver [6, 13]: 3778 ng/g and 3241 ng/g and 3353 ng/g
Plasma [6, 13]: 8371 ng/mL and 7102 ng/mL and 6639 ng/mL
Heart ([6]; Table 4, oral 10 mg/kg, 24 h, individual animal): BLQ
Heart [6, 16]: 215 ng/g and 169 ng/g
Liver [6, 16]: 1478 ng/g and 1383 ng/g
Plasma [6, 16]: 5796 ng/mL and 4534 ng/mL
Heart [6, 17]: 196 ng/g and 116 ng/g
Liver [6, 17]: 614 ng/g and 469 ng/g
Plasma [6, 17]: 4487 ng/mL and 2490 ng/mL
Heart [6, 18]: 6.36 ng/g and 13.7 ng/g and 20.5 ng/g
Liver [6, 18]: 23.3 ng/g and 39.5 ng/g and 56.7 ng/g
Plasma [6, 18]: 165 ng/mL and 335 ng/mL and 412 ng/mL
concentration at 3 h ([6]; heart, 10 mg/kg, Table 4, 3 h, individual animal, read-out: Heart): 189 ng/g
concentration at 3 h ([6]; heart, 10 mg/kg, Table 4, 3 h, mean, read-out: Heart Mean): 154 ng/g
concentration at 8 h ([6]; heart, 10 mg/kg, Table 4, 8 h, mean, read-out: Heart Mean): 50.5 ng/g
concentration at 24 h ([6]; heart, 10 mg/kg, Table 4, 24 h, mean, read-out: Heart Mean): 0 ng/g
concentration at 3 h ([6]; heart, 10 mg/kg, Table 6, 3.00 h, individual animal, read-out: Heart): 197 ng/g
concentration at 3 h ([6]; heart, 10 mg/kg, Table 6, 3.00 h, mean, read-out: Heart Mean): 194 ng/g
concentration at 8 h ([6]; heart, 10 mg/kg, Table 6, 8.00 h, individual animal, read-out: Heart): 139 ng/g
concentration at 8 h ([6]; heart, 10 mg/kg, Table 6, 8.00 h, mean, read-out: Heart Mean): 150 ng/g
concentration at 24 h ([6]; heart, 10 mg/kg, Table 6, 24.0 h, mean, read-out: Heart Mean): 13.5 ng/g
concentration at 3 h ([6]; liver, 10 mg/kg, Table 4, 3 h, individual animal, read-out: Liver): 4300 ng/g
concentration at 3 h ([6]; liver, 10 mg/kg, Table 4, 3 h, mean, read-out: Liver Mean): 3670 ng/g
concentration at 8 h ([6]; liver, 10 mg/kg, Table 4, 8 h, mean, read-out: Liver Mean): 617 ng/g
concentration at 24 h ([6]; liver, 10 mg/kg, Table 4, 24 h, mean, read-out: Liver Mean): 22 ng/g
concentration at 3 h ([6]; liver, 10 mg/kg, Table 6, 3.00 h, individual animal, read-out: Liver): 1880 ng/g
concentration at 3 h ([6]; liver, 10 mg/kg, Table 6, 3.00 h, mean, read-out: Liver Mean): 1580 ng/g
concentration at 8 h ([6]; liver, 10 mg/kg, Table 6, 8.00 h, individual animal, read-out: Liver): 689 ng/g
concentration at 8 h ([6]; liver, 10 mg/kg, Table 6, 8.00 h, mean, read-out: Liver Mean): 591 ng/g
concentration at 24 h ([6]; liver, 10 mg/kg, Table 6, 24.0 h, mean, read-out: Liver Mean): 39.8 ng/g
concentration at 3 h ([6]; plasma, 10 mg/kg, Table 4, 3 h, individual animal, read-out: Plasma): 9340 ng/mL
concentration at 3 h ([6]; plasma, 10 mg/kg, Table 4, 3 h, mean, read-out: Plasma Mean): 7860 ng/mL
concentration at 8 h ([6]; plasma, 10 mg/kg, Table 4, 8 h, mean, read-out: Plasma Mean): 3220 ng/mL
concentration at 24 h ([6]; plasma, 10 mg/kg, Table 4, 24 h, mean, read-out: Plasma Mean): 164 ng/mL
concentration at 3 h ([6]; plasma, 10 mg/kg, Table 6, 3.00 h, mean, read-out: plasma Mean): 5260 ng/mL
concentration at 8 h ([6]; plasma, 10 mg/kg, Table 6, 8.00 h, mean, read-out: plasma Mean): 3430 ng/mL
concentration at 24 h ([6]; plasma, 10 mg/kg, Table 6, 24.0 h, mean, read-out: plasma Mean): 304 ng/mL
concentration at 3 h ([6]; 10 mg/kg, Table 6, 3.00 h, individual animal, read-out: plasma): 5450 ng/mL
concentration at 8 h ([6]; 10 mg/kg, Table 6, 8.00 h, individual animal, read-out: plasma): 3330 ng/mL
SMILES: Cc1cc(C(F)(F)F)nc2ccc(Oc3c(Cl)cc(-n4nc(C#N)c(=O)[nH]c4=O)cc3Cl)cc12 [Compound 38, 2-(3,5-Dichloro-4-((2-trifluoromethyl-4-methylquinolin-6-yl)oxy)phenyl) -3,5-dioxo-2,3,4,5-tetrahydro-1,2,4-triazine-6-carbonitrile]
serum TC/TG levels and LCL-C levels [3]: significant decrease
expression of CYP7α1, ME2, and LDLR genes in the liver ([1]; C57 mice, single administration, 10 mg/kg, after 24 h of administration): significantly up-regulated
DIO1 gene expression in the liver ([1]; C57 mice, single administration, after 8 and 24 h of administration, T3 0.5 mg/kg, compound 38 10 mg/kg): significantly up-regulated
effects on cardiac DIO1 and MHCα genes [4]: neither compound 38 nor MGL3196 had significant effects
plasma TC levels ([5]; 1 mg/kg dosage group): decreased
plasma TC levels ([5]; 10 mg/kg dosage group): decreased
CL_obs ([2]; i.v., individual animal): 0.691 mL/min/kg and 0.859 mL/min/kg and 0.856 mL/min/kg
Heart [6, 14]: 39.9 ng/g and 72.2 ng/g and 26.4 ng/g and 63.3 ng/g
Liver [6, 14]: 582 ng/g and 895 ng/g and 264 ng/g and 729 ng/g
Plasma [6, 14]: 2473 ng/mL and 4555 ng/mL and 2005 ng/mL and 3847 ng/mL
Liver [6, 15]: 29.5 ng/g and 27.8 ng/g and 14.5 ng/g and 16.3 ng/g
Plasma [6, 15]: 281 ng/mL and 192 ng/mL and 88.6 ng/mL and 93.6 ng/mL
